Measured values: ChEMBL document CHEMBL5365481, “Design, Synthesis, and Activity Evaluation of Novel Dual-Target Inhibitors with Antifungal and Immunoregulatory Properties” (J Med Chem, 2023)
Activity calls are given as the source filed them. No cut-off for these calls is given here.

Columns and labels:
Cell membrane [1] = test: Induction of cell membrane integrity disruption in Candida albicans ATCC SC5314 assessed as seepage of cell contents into external region at 1 microM/ml incubated for 96 hrs by TEM analysis; type: subcellular
Cell membrane [2] = test: Induction of cell membrane integrity disruption in Candida albicans ATCC SC5314 assessed as accumulation of low density particulate matter at 1 microM/ml incubated for 48 to 72 hrs by TEM analysis; type: subcellular; details: time 48-72 hrs
Cell membrane [3] = test: Induction of cell membrane integrity disruption in Candida albicans ATCC SC5314 assessed as cell destruction at 1 microM/ml incubated for 96 hrs by TEM analysis; type: subcellular
Cell membrane [4] = test: Induction of cell membrane integrity disruption in Candida albicans ATCC SC5314 assessed as decrease in cell membrane thickness at 1 microM/ml incubated for 48 to 72 hrs by TEM analysis; type: subcellular; details: time 48-72 hrs
Candida albicans [5] = test: In vivo antifungal activity against Candida albicans ATCC SC5314 infected in BALB/c mouse assessed as decrease in IL-2 expression level at 10 ug, ip for 14 days in presence of Biphenyl isopropyl ester by immunohistochemical analysis; type: functional, organism-based; details: dose 10.0 µg, time 14.0 day
[6] = Toxicity in BALB/c mouse infected with Candida albicans ATCC SC5314 assessed as plasma AST level at 10 ug, ip for 14 days in presence of Biphenyl isopropyl ester; type: organism-based; details: in vivo, 336 h, dose 10 µg, time 14 day
Candida albicans [7] = test: In vivo antifungal activity against Candida albicans ATCC SC5314 infected in BALB/c mouse assessed as disappearance of nuclei aggregation at 10 ug, ip for 14 days in presence of Biphenyl isopropyl ester by GMS staining based microscopy; type: functional, organism-based; details: dose 10.0 µg, time 14.0 day
Candida albicans [8] = test: In vivo antifungal activity against Candida albicans ATCC SC5314 infected in BALB/c mouse assessed as decrease in COX2 expression level at 10 ug, ip for 14 days in presence of Biphenyl isopropyl ester by Western blot analysis; type: functional, organism-based; details: dose 10.0 µg, time 14.0 day
Candida albicans [9] = test: In vivo antifungal activity against Candida albicans ATCC SC5314 infected in BALB/c mouse assessed as decrease in necrotic cell debris in tissue gap at 10 ug, ip for 14 days in presence of Biphenyl isopropyl ester by GMS staining based microscopy; type: functional, organism-based; details: dose 10.0 µg, time 14.0 day
[10] = Toxicity in BALB/c mouse infected with Candida albicans ATCC SC5314 assessed as morphological changes in lung at 10 ug, ip for 14 days in presence of Biphenyl isopropyl ester by H and E staining based microscopy; type: organism-based; details: in vivo, 336 h, dose 10 µg, time 14 day
Candida albicans [11] = test: In vivo antifungal activity against Candida albicans ATCC SC5314 infected in BALB/c mouse assessed as decrease in PD-L1 expression level at 10 ug, ip for 14 days in presence of Biphenyl isopropyl ester by Western blot analysis; type: functional, organism-based; details: dose 10.0 µg, time 14.0 day
Candida albicans [12] = test: In vivo antifungal activity against Candida albicans ATCC SC5314 infected in BALB/c mouse assessed as reversal of cell morphology to normal state at 10 ug, ip for 14 days in presence of Biphenyl isopropyl ester by GMS staining based microscopy; type: functional, organism-based; details: dose 10.0 µg, time 14.0 day
Candida albicans [13] = test: In vivo antifungal activity against Candida albicans ATCC SC5314 infected in BALB/c mouse assessed as fold increase in CD8+ expression level in T cells at 10 ug, ip for 14 days in presence of Biphenyl isopropyl ester by immunohistochemical analysis; type: functional, T-cell; details: dose 10 µg, time 14 day
Candida albicans [14] = test: In vivo antifungal activity against Candida albicans ATCC SC5314 infected in BALB/c mouse assessed as fold increase in CD3+ expression level in T cells at 10 ug, ip for 14 days in presence of Biphenyl isopropyl ester by immunohistochemical analysis; type: functional, T-cell; details: dose 10 µg, time 14 day
[15] = Toxicity in BALB/c mouse infected with Candida albicans ATCC SC5314 assessed as plasma BUN level at 10 ug, ip for 14 days in presence of Biphenyl isopropyl ester; type: organism-based; details: in vivo, 336 h, dose 10 µg, time 14 day
Candida albicans [16] = test: In vivo antifungal activity against Candida albicans ATCC SC5314 infected in BALB/c mouse assessed as decrease in IFN-gamma expression level at 10 ug, ip for 14 days in presence of Biphenyl isopropyl ester by immunohistochemical analysis; type: functional, organism-based; details: dose 10.0 µg, time 14.0 day
[17] = Toxicity in BALB/c mouse infected with Candida albicans ATCC SC5314 assessed as plasma ALT level at 10 ug, ip for 14 days in presence of Biphenyl isopropyl ester; type: organism-based; details: in vivo, 336 h, dose 10 µg, time 14 day
Candida albicans [18] = test: In vivo antifungal activity against Candida albicans ATCC SC5314 infected in BALB/c mouse assessed as decrease in NLRP3 expression level at 10 ug, ip for 14 days in presence of Biphenyl isopropyl ester by Western blot analysis; type: functional, organism-based; details: dose 10.0 µg, time 14.0 day
[19] = Toxicity in BALB/c mouse infected with Candida albicans ATCC SC5314 assessed as morphological changes in heart at 10 ug, ip for 14 days in presence of Biphenyl isopropyl ester by H and E staining based microscopy; type: organism-based; details: in vivo, 336 h, dose 10 µg, time 14 day
[20] = Toxicity in BALB/c mouse infected with Candida albicans ATCC SC5314 assessed as morphological changes in spleen at 10 ug, ip for 14 days in presence of Biphenyl isopropyl ester by H and E staining based microscopy; type: organism-based; details: in vivo, 336 h, dose 10 µg, time 14 day

Row | SMILES | Activity (Cell membrane [1]) | Activity (Cell membrane [2]) | Activity (Cell membrane [3]) | Activity (Cell membrane [4]) | Activity (Candida albicans [5]) | Activity [6] | Activity (Candida albicans [7]) | Activity (Candida albicans [8]) | Activity (Candida albicans [9]) | Activity [10] | Activity (Candida albicans [11]) | Activity (Candida albicans [12]) | fold change (FC) (Candida albicans [13]) | fold change (FC) (Candida albicans [14]) | Activity [15] | Activity (Candida albicans [16]) | Activity [17] | Activity (Candida albicans [18]) | Activity [19] | Activity [20]
1 | CC(=O)c1ccc(C(=O)N2CCC(NC(=O)c3nc(-n4cncn4)c4ccccc4n3)CC2)cc1 | Active | Active | Active | Active | – | – | – | – | – | – | – | – | – | – | – | – | – | – | – | –
2 | OC(Cn1cncn1)(Cn1cncn1)c1ccc(F)cc1F [FLUCONAZOLE] | – | – | – | – | Active | 71.9 IU/L | Active | Active | Active | Non-Toxic | Active | Active | 1.46 | 1.46 | 22.8 nmol/L | Active | 37.2 IU/L | Active | Non-Toxic | Non-Toxic
